Laboratory results as given in ChEMBL document CHEMBL1201862, “PubChem BioAssay data set” (2004).
Activity calls are given as the source filed them.

Assays:
cells [1] = type: functional, cell-based
cells [2] = type: functional, cell-based; remark: listed apart in the source
[3] = molecular target: DNA dC->dU-editing enzyme APOBEC-3G (Homo sapiens, UniProt Q9HC16); assay: Dose Response confirmation of small molecule APOBEC3G DNA Deaminase Inhibitors via a fluorescence-based single-stranded DNA deaminase assay. [Related pubchem assays (depositor defined):AID493012, AID493028]; type: functional
Leucine aminopeptidase = molecular target: T1, Leucine aminopeptidase (Plasmodium falciparum 3D7, UniProt Q8IL11); assay: P. falciparum M17LAP inhibitors, primary screen, biochemical, fluorogenic H-Leu-NHMec substrate, 1536-well (AID 1619); type: functional
T1 sequence (Q8IL11 whole entry): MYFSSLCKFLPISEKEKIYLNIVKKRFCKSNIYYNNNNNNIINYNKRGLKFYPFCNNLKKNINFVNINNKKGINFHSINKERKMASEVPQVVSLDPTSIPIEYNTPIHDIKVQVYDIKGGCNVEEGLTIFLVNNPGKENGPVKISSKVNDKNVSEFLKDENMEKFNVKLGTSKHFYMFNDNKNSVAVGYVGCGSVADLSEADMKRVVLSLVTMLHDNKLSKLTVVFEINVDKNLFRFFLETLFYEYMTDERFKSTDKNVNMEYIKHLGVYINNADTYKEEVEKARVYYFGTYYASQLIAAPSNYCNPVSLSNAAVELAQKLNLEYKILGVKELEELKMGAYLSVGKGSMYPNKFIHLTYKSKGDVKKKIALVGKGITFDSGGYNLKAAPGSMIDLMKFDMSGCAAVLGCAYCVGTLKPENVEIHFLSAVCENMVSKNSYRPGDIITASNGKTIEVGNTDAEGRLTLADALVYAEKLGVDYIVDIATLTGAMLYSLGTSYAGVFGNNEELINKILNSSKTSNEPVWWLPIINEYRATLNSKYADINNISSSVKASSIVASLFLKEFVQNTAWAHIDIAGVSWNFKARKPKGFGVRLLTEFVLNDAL

[4] = molecular target: Peroxisome proliferator-activated receptor gamma/Nuclear receptor corepressor 2 (Homo sapiens, UniProt P37231+Q9Y618); type: functional
[5] = molecular target: Ras and Rab interactor 1/Tyrosine-protein kinase ABL1 (Homo sapiens, UniProt P00519+Q13671); type: functional;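 also: biochemical TR-FRET dose-response test measuring inhibition of binding between Rin1 and Abl proteins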
[6] = molecular target: Photoreceptor-specific nuclear receptor (Homo sapiens, UniProt Q9Y5X4); type: functional;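 also: potency for compounds that break the NR2E3 corepressor complex and count as activators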
[7] = molecular target: Voltage-dependent T-type calcium channel subunit alpha-1H (Homo sapiens, UniProt O95180); type: functional;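 also: channel activity triggered by adding a high calcium stimulation buffer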
[8] = Luminescence Cell-Based Dose Retest to Confirm Inhibitors of Cancer Stem Cells. [Related pubchem assays (depositor defined):AID2717, AID2721]; type: functional; conditions: Homo sapiens
[9] = molecular target: T2, Heat shock factor protein 1 (Mus musculus, UniProt P38532); assay: HSF1 potentiators in luciferase reporter cells, confirmation, cell-based, NIH3T3, luminescence, dose retest (AID 435004); type: functional;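 also: stress induced by proteasome inhibitor MG132 added 30 min after compound; luciferase reporter driven by HSF1 response element in NIH3T3 cells; actives raise luminescence as potentiators of the MG132 stress response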
T2 sequence (P38532 whole entry): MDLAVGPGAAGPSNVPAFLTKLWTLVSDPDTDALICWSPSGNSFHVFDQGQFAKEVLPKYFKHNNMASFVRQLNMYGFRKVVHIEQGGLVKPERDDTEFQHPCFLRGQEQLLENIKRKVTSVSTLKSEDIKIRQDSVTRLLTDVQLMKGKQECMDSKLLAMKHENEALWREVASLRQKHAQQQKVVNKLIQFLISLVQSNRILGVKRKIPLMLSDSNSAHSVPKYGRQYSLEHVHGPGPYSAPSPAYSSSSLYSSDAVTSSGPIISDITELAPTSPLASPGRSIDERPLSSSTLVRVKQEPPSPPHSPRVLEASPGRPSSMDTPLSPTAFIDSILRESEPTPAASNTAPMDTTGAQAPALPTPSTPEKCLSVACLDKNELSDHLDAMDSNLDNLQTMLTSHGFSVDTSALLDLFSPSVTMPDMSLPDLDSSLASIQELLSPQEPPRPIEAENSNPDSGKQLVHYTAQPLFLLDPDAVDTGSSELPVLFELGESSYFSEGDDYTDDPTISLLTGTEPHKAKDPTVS

[10] = molecular target: Acyl-homoserine lactone acylase PvdQ (Pseudomonas aeruginosa (strain LESB58), UniProt Q9I194); assay: P. aeruginosa PvdQ acylase inhibitors, dose response, biochemical, fluorescence, plate reader and imaging, cherry-picks (AID 493231)
cells [11] = assay: cells
Major prion protein = Major prion protein (Homo sapiens, UniProt P04156); type: functional, cell-based
[12] = molecular target: Peroxisome proliferator-activated receptor gamma/Nuclear receptor coactivator 3 (Homo sapiens, UniProt P37231); assay: TR-FRET dose response biochemical High Throughput Screening assay for agonists of the steroid receptor coactivator 3 (SRC-3) recruitment by the peroxisome proliferator-activated receptor gamma (PPAR gamma): non-selective agonists. [Related pubchem assays: 1301 (Confirmation screen.), 1048 (Primary screen.)]; type: functional
[13] = molecular target: Peroxisome proliferator-activated receptor gamma/Nuclear receptor coactivator 1 (Homo sapiens, UniProt P37231); assay: TR-FRET dose response biochemical High Throughput Screening assay for agonists of the steroid receptor coactivator 1 (SRC-1) recruitment by the peroxisome proliferator-activated receptor gamma (PPAR gamma): non-selective agonists. [Related pubchem assays (depositor defined):AID1300, AID1808, AID504735, AID631]; type: protein assay
Genome polyprotein = Genome polyprotein (Hepatitis C virus, UniProt Q2Q167); assay: HCV core protein dimerization inhibitors, dose response, biochemical, TR-FRET (AID 2159); design: species or system Hepacivirus hominis;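 also: blocks dimerization of HCV core protein measured by TR-FRET between tagged core106 pairs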
[14] = molecular target: Peroxisome proliferator-activated receptor gamma/Nuclear receptor coactivator 2 (Homo sapiens, UniProt P37231); assay: TR-FRET dose response biochemical High Throughput Screening assay for agonists of the steroid receptor coactivator 2 (SRC-2) recruitment by the peroxisome proliferator-activated receptor gamma (PPAR gamma): non-selective agonists. [Related pubchem assays: 1297, 1032 ]; type: functional
[15] = Shn3 3'UTR reporter inhibitors, dose response, cell-based, Clone20 osteoblasts, firefly luciferase, cherry-picked (AID 624132); type: functional;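 also: firefly luciferase luminescence from reporter carrying the Shn3 3'UTR in osteoblasts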
[16] = cytotoxicity toward DRD oncogenic fibroblasts, dose response, cell-based, non-viral oncogenic, luminescence (AID 1934); type: functional; conditions: Homo sapiens
BJ [17] = assay: cytotoxicity toward BJ-TERT fibroblasts, dose response, cell-based, RAS-independent, luminescence (AID 1933); type: functional; conditions: Homo sapiens
[18] = inhibitors of intracellular T. cruzi replication, confirmation, NIH3T3 host cells, beta-gal luminescence (AID 2044); type: functional, cell-based;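 also: intracellular parasites grown in NIH/3T3 mouse fibroblasts as host cells; luminescent beta-galactosidase reporter signal from transgenic T. cruzi replicating inside host cells; inhibitors lower the luminescence signal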
[19] = control 3'UTR Renilla luciferase suppression, dose response, counter-screen for Shn3 inhibitor project, cell-based, Clone20-Shn3RL, cherry-picked (AID 624133); type: functional
[20] = HepG2 cell cytotoxicity, dose response, cytotoxicity control for Shn3 inhibitor project, CellTiter-Glo, cherry-picked (AID 624134); type: functional, cell-based
[21] = cytotoxicity toward NIH3T3 fibroblasts, dose response, counter-screen, cell-based, ATP luminescence, mouse fibroblasts (AID 2010); type: functional;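 also: cells exposed to compound for about 90 hours before reading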
BJ [22] = assay: cytotoxicity toward BJ-TERT-LT-ST fibroblasts, dose response, cell-based, RAS-independent, luminescence (AID 1935); type: functional; conditions: Homo sapiens;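 also: BJ fibroblasts immortalized with TERT plus LT and ST oncogenes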
[23] = molecular target: T3, Histone-lysine N-methyltransferase NSD2 (Homo sapiens, UniProt O96028); type: biochemical
T3 sequence (O96028 whole entry): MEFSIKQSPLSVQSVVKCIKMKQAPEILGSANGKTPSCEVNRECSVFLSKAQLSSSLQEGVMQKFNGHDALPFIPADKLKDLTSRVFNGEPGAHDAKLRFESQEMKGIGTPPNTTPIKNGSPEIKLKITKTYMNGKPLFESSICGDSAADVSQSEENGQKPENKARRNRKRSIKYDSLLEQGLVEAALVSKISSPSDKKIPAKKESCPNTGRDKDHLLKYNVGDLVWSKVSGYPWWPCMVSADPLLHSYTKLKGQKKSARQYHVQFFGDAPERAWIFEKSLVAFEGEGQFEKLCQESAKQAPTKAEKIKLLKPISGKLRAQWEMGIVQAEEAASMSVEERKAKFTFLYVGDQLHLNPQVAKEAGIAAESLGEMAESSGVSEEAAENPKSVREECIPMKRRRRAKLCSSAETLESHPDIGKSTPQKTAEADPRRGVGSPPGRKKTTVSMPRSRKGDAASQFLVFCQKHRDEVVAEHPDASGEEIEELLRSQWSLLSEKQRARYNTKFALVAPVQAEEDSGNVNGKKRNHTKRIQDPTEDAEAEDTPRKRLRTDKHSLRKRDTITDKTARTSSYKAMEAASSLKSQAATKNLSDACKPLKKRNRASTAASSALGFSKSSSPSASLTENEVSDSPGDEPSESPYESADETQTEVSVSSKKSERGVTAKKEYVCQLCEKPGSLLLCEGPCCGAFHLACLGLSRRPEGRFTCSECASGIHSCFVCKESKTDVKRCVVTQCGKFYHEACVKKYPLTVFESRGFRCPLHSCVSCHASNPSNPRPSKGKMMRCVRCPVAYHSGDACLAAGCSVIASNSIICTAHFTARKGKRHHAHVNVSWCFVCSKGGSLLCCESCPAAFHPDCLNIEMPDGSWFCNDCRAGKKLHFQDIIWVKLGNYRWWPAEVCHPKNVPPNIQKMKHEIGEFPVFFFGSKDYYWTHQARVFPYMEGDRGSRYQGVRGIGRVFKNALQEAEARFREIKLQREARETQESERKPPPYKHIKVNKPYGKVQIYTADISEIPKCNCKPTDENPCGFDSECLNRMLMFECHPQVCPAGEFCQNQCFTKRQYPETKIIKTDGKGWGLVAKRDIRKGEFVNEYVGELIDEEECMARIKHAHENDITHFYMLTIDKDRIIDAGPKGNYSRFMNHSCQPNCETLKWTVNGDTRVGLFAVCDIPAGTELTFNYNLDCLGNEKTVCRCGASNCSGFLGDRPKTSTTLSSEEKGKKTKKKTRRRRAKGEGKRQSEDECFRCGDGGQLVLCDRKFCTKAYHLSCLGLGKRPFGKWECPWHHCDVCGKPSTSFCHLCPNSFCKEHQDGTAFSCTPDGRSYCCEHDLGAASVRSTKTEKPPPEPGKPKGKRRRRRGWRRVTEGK

BJ [24] = assay: cells; type: functional, cell-based; conditions: Homo sapiens
Hexokinase HKDC1 = molecular target: T4, Hexokinase HKDC1 (Homo sapiens, UniProt Q2TB90); assay: HKDC1 hexokinase inhibitors, dose response, biochemical, W721R variant (AID 504729); type: functional
T4 sequence (Q2TB90 whole entry): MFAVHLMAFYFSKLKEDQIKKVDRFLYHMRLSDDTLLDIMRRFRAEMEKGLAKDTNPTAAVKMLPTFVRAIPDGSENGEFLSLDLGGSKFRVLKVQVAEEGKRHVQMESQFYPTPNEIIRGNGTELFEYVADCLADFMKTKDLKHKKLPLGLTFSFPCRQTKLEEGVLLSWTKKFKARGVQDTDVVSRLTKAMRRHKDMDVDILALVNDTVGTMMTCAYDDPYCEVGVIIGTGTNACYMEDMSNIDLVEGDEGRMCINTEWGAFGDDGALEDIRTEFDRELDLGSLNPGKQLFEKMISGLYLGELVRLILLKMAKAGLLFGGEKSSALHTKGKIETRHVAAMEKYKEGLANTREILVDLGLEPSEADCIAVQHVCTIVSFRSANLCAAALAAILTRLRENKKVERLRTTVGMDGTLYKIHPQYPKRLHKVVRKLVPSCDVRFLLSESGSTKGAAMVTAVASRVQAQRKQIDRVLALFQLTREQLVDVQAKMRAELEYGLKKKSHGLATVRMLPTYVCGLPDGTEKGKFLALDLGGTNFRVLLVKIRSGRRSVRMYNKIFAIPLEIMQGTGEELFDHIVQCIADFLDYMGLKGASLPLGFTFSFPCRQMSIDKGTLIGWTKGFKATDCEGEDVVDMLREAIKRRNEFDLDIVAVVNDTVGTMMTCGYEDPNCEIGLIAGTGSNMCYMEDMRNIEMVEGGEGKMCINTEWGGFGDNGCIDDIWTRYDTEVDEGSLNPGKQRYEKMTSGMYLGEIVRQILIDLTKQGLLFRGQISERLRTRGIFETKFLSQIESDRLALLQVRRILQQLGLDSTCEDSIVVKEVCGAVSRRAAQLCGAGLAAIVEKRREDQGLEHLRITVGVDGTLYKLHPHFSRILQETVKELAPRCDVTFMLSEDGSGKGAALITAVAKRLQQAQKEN

COc1cccc(Nc2nnc(S)s2)c1
EC50 (cells [1]): > 350 µM (not active) | EC50 (cells [2]): > 350 µM (not active) | IC50 [3]: > 100 µM (inactive) | IC50 (Leucine aminopeptidase): 6.54 µM (active)

Cc1cccc(C)c1NC(=O)CCCCCC1NC(=O)NC1C (stereo not drawn)
IC50 [4]: > 39.8 µM (not active) | IC50 [5]: 0.106 µM (active) | IC50 [6]: 3.85 µM (active)

O=C(NC1CCCC1)C(c1ccccc1)N(Cc1ccc2c(c1)OCO2)C(=O)Cc1cccs1 (stereo not drawn)
EC50 [7]: 1.52 µM (active)

COc1ccc(Cn2nnnc2C(C(C)C)N(Cc2ccco2)Cc2cccs2)cc1 (stereo not drawn)
EC50 [7]: 6.56 µM (active) | AC50 [8]: 2.02 µM (active)

Cc1cccc(C(C#N)c2ccc(Cl)nn2)c1 (stereo not drawn)
EC50 [9]: > 260 µM (inactive) | AC50 [10]: 2.01 µM (active)

Cc1cc(Br)c2nc3c(c(C(=O)O)c2c1)CCCCC3
IC50 (cells [11]): > 138 µM (inactive) | IC50 (Major prion protein): 0.141 µM (active) | EC50 [12]: > 79.4 µM (not active) | IC50 [4]: 0.604 µM (active) | EC50 [13]: > 79.4 µM (inactive) | IC50 (Genome polyprotein): > 49.8 µM (not active) | EC50 [14]: 12.8 µM (not active) | IC50 [6]: 1.38 µM (active)

CCN(CC)CCNc1cc(C)nc2c1C(=O)C(=O)C=C2N1CCCCC1
AC50 [15]: 6.61 µM (active) | EC50 (cells [1]): > 350 µM (not active) | EC50 (cells [2]): > 350 µM (not active) | EC50 [16]: 9.47 µM (active) | EC50 (BJ [17]): 5.91 µM (inconclusive) | EC50 [18]: 1.44 µM (active) | AC50 [19]: 6.45 µM (active) | AC50 [20]: 5.54 µM (active) | EC50 [21]: > 60 µM (not active) | EC50 (BJ [22]): 8.38 µM (active) | AC50 [23]: > 20 µM (inactive) | EC50 (BJ [24]): 10.2 µM (active) | IC50 (Hexokinase HKDC1): 13.2 µM (active)
